Measured values published in patent US12194013B2 (SICHUAN JIUZHANG BIOLOGICAL SCIENCE AND TECHNOLOGY CO., LTD., priority 2018, dated 2025).
Marks after values point to notes of the source that are not given here.

Assays:
[1] = tested on: human skin squamous cell carcinoma A431 cells; experiment: Inhibition of cell proliferation (MTT method); type: cell-based; conditions: 72 h
Experimental: (§1) A431 cell lines were seeded in IMDM medium, containing 10% fetal bovine serum, 100 U·ml^−1 penicillin, and 100 μg·ml^−1 streptomycin, and then cultured in 37° C., 5% CO2 incubator. Cells were passaged one generation at 48-72 h, and the cells in the logarithmic growth phase were collected for the experiment.
The cells in logarithmic growth phase were inoculated on 96 well plate and further cultured for 24 hours, then divided into experimental groups and blank control group. […] The blank control group was added with the same volume of IMDM culture medium without test substance. Six multiple wells were set for each concentration. After 72 hours, the newly prepared MTT solution was added. After further culturing for 4 h, DMSO solution was added and shook, so that the crystals were fully dissolved. The absorbance value (A570 nm) of each well was measured on the microplate reader.

[2] = tested on: human skin squamous cell carcinoma A431 cells; experiment: Detecting apoptosis by flow cytometry (Annexin V-FITC/PI); type: cell-based; conditions: 72 h
Experimental: as §1
The cells of each group treated with different concentrations of test substance for 72 h were collected and made into single cell suspension. The living cells were labeled with Annexin V-FITC and PI. After mixing, the cells were incubated in dark for 15 min at room temperature, and then 1× binding buffer was added and mixed, before the apoptotic cells were detected by flow cytometry and analyzed by Multicyc AV software.

[3] = tested on: head and neck squamous cell carcinoma SCCVII cell lines; experiment: Transplanted tumor of head and neck squamous cell carcinoma SCCVII cell lines in mice; type: in vivo, mouse; conditions: 30 mg·kg^−1 intraperitoneally once a day; for Tumor volume / Tumor weight / Tumor inhibition rate: C3H/HeJ mice, SCCVII; for Tumor weight: at end of experiment; for Tumor inhibition rate: from average tumor weight vs negative group
Experimental: When the cells grew vigorously, they were digested with 0.25% trypsin, washed with phosphate buffer, and prepared as cell suspension at 3×10^6 cells/ml for use.
0.1 ml cell suspension was subcutaneously injected into the armpit of the left forelimb of mice. They were randomly divided into groups, 10 mice for one group, including test drug group 1, test drug group 2, test drug group 3, test drug group 4, test drug group 5, test drug group 6, test drug group 7, and negative group (N.S.), respectively. The drug was given on the second day after inoculation. The test drug group was intraperitoneally injected at a dose of 30 mg·kg^−1, once a day, and the administration volume was 1.0 ml; in the negative group, the same volume of normal saline was intraperitoneally injected, once a day.
The tumor volume (v=0.52×the long diameter of transplanted tumor L×the shortest diameter of transplanted tumor W^2) was measured on the 5th day after inoculation, and the mice were weighed every three days. When the tumor volume of the negative group was about 1.0 cm^3, the experiment was stopped, and the mice were killed by cervical dislocation and weighed.

Row | SMILES | Apoptosis rate of each experimental group ([2]; 1 μg/ml) | Apoptosis rate of each experimental group ([2]; 2 μg/ml) | Apoptosis rate of each experimental group ([2]; 4 μg/ml) | Apoptosis rate of each experimental group ([2]; 8 μg/ml) | Apoptosis rate of each experimental group ([2]; 16 μg/ml) | Apoptosis rate of each experimental group ([2]; 32 μg/ml) | Apoptosis rate of each experimental group ([2]; 64 μg/ml) | Apoptosis rate of each experimental group ([2]; 128 μg/ml) | inhibitory effect on the tumors in mice transplanted with SCCVII cell lines, compared with the negative group (in words) [3] | Tumor volume ([3]; 5 d after inoculation) | Tumor volume ([3]; 8 d after inoculation) | Tumor volume ([3]; 10 d after inoculation) | Tumor volume ([3]; 13 d after inoculation) | Tumor volume ([3]; 15 d after inoculation) | Tumor volume ([3]; 18 d after inoculation) | Tumor weight [3] | Tumor inhibition rate [3] | also measured
1 | O=C(/C=C/c1ccc(O)cc1)O[C@@H]1C[C@](O)(C(=O)O)C[C@@H](O)[C@H]1O [Coumaroylquinic acid] | 0.53 ± 0.03% | 0.55 ± 0.05% | 0.56 ± 0.04% | 0.64 ± 0.13% | 0.69 ± 0.41% | 1.37 ± 0.36% | 2.26 ± 0.69% | 3.07 ± 1.23% | not obvious | 0.124 ± 0.047 cm^3 | 0.258 ± 0.121 cm^3 | 0.369 ± 0.114 cm^3 | 0.604 ± 0.225* cm^3 | 0.653 ± 0.111* cm^3 | 0.811 ± 0.108* cm^3 | 2.11 ± 0.129^ g | 13.17% | inhibitory effect on human skin squamous cell carcinoma A431 (in words) ([1]; 1-128 μg/ml): not obvious; The inhibition rate of each experimental group ([1]; A431 cells, 1 μg/ml): 1.24 ± 0.81%; The inhibition rate of each experimental group ([1]; A431 cells, 2 μg/ml): 1.28 ± 0.69%; The inhibition rate of each experimental group ([1]; A431 cells, 4 μg/ml): 1.33 ± 0.42%; The inhibition rate of each experimental group ([1]; A431 cells, 8 μg/ml): 2.41 ± 0.58%; The inhibition rate of each experimental group ([1]; A431 cells, 16 μg/ml): 2.62 ± 0.86%; The inhibition rate of each experimental group ([1]; A431 cells, 32 μg/ml): 5.77 ± 0.92%; The inhibition rate of each experimental group ([1]; A431 cells, 64 μg/ml): 6.83 ± 1.02%; The inhibition rate of each experimental group ([1]; A431 cells, 128 μg/ml): 8.11 ± 0.63%; Tumor volume ([3]; 22 d after inoculation): 0.954 ± 0.203* cm^3
2 | O=C(/C=C/c1ccc(O)c(O)c1)O[C@@H]1C[C@](O)(C(=O)O)C[C@@H](O)[C@H]1O [Chlorogenic acid] | 0.57 ± 0.04% | 0.57 ± 0.05% | 0.61 ± 0.06% | 0.71 ± 0.11% | 1.99 ± 0.57% | 4.56 ± 1.08 % | 4.73 ± 1.22 % | 4.87 ± 0.74 % | significant differences | 0.124 ± 0.083 cm^3 | 0.222 ± 0.079 cm^3 | 0.347 ± 0.102 cm^3 | 0.436 ± 0.172* cm^3 | 0.483 ± 0.136* cm^3 | 0.545 ± 0.224* cm^3 | 1.43 ± 0.074 g | 41.15% | inhibition at 1 µg/mL ([1]; Homo sapiens, A-431, A431 cells, 1 μg/ml, read-out: The inhibition rate of each experimental group): 1.12 ± 0.47%; inhibition at 2 µg/mL ([1]; Homo sapiens, A-431, A431 cells, 2 μg/ml, read-out: The inhibition rate of each experimental group): 1.38 ± 0.53%; inhibition at 4 µg/mL ([1]; Homo sapiens, A-431, A431 cells, 4 μg/ml, read-out: The inhibition rate of each experimental group): 5.63 ± 2.29%; inhibition at 8 µg/mL ([1]; Homo sapiens, A-431, A431 cells, 8 μg/ml, read-out: The inhibition rate of each experimental group): 11 ± 4.71%; inhibition at 16 µg/mL ([1]; Homo sapiens, A-431, A431 cells, 16 μg/ml, read-out: The inhibition rate of each experimental group): 18.6 ± 4.82%; inhibition at 32 µg/mL ([1]; Homo sapiens, A-431, A431 cells, 32 μg/ml, read-out: The inhibition rate of each experimental group): 24.5 ± 9.69%; inhibition at 64 µg/mL ([1]; Homo sapiens, A-431, A431 cells, 64 μg/ml, read-out: The inhibition rate of each experimental group): 31.4 ± 7.35%; inhibition at 128 µg/mL ([1]; Homo sapiens, A-431, A431 cells, 128 μg/ml, read-out: The inhibition rate of each experimental group): 36.3 ± 10.8%
